Source: ChEMBL document CHEMBL4622870, “Design, synthesis and evaluation of hydrazine and acyl hydrazone derivatives of 5-pyrrolidin-2-one as antifungal agents” (Bioorg Med Chem Lett, 2020)

Experiments:
Penicillium ochrochloron = test: Antifungal activity against Penicillium ochrochloron assessed as fungal growth inhibition at 100 ug/ml by micro-dilution method relative to control; type: functional; details: read-out: GI
Sclerotinia sclerotiorum = test: Antifungal activity against Sclerotinia sclerotiorum assessed as fungal growth inhibition at 100 ug/ml by micro-dilution method relative to control; type: functional; details: read-out: GI
Pichia kudriavzevii = test: Antifungal activity against Candida krusei assessed as fungal growth inhibition at 100 ug/ml by micro-dilution method relative to control; type: functional; details: read-out: GI
[1] = tested on: Cladosporium cladosporioides; test: Antifungal activity against Cladosporium cladosporioides assessed as fungal growth inhibition at 100 ug/ml by micro-dilution method relative to control; type: functional; details: read-out: GI
Fusarium solani = test: Antifungal activity against Fusarium solani assessed as fungal growth inhibition at 100 ug/ml by micro-dilution method relative to control; type: functional; details: read-out: GI
Aspergillus oryzae = test: Antifungal activity against Aspergillus oryzae assessed as fungal growth inhibition at 100 ug/ml by micro-dilution method relative to control; type: functional; details: read-out: GI
Kluyveromyces marxianus = test: Antifungal activity against Candida pseudotropicalis assessed as fungal growth inhibition at 100 ug/ml by micro-dilution method relative to control; type: functional; details: read-out: GI
HEK293 = test: Cytotoxicity against human HEK293 cells assessed as effect on cell viability measured after 72 hrs by MTS assay; type: cell-based; details: hek293, 72 h
Botrytis cinerea = test: Antifungal activity against Botrytis cinerea assessed as fungal growth inhibition at 100 ug/ml by micro-dilution method relative to control; type: functional; details: read-out: GI
Paecilomyces variotii = test: Antifungal activity against Paecilomyces variotii assessed as fungal growth inhibition at 100 ug/ml by micro-dilution method relative to control; type: functional; details: read-out: GI
Candida tropicalis = test: Antifungal activity against Candida tropicalis assessed as fungal growth inhibition at 100 ug/ml by micro-dilution method relative to control; type: functional; details: read-out: GI
Alternaria alternata = test: Antifungal activity against Alternaria alternata assessed as fungal growth inhibition at 100 ug/ml by micro-dilution method relative to control; type: functional; details: read-out: GI
Geotrichum candidum [2] = test: Antifungal activity against Geotrichum candidum assessed as fungal growth inhibition at 100 ug/ml by micro-dilution method relative to control; type: functional; details: read-out: GI
Geotrichum candidum [3] = test: Antifungal activity against Geotrichum candidum assessed as fungal growth inhibition by micro-dilution method; type: functional

SMILES | inhibition of growth at 100 µg/mL (Penicillium ochrochloron) | inhibition of growth at 100 µg/mL (Sclerotinia sclerotiorum) | inhibition of growth at 100 µg/mL (Pichia kudriavzevii) | inhibition of growth at 100 µg/mL [1] | inhibition of growth at 100 µg/mL (Fusarium solani) | inhibition of growth at 100 µg/mL (Aspergillus oryzae) | inhibition of growth at 100 µg/mL (Kluyveromyces marxianus) | Activity (HEK293) | inhibition of growth at 100 µg/mL (Botrytis cinerea) | inhibition of growth at 100 µg/mL (Paecilomyces variotii) | inhibition of growth at 100 µg/mL (Candida tropicalis) | inhibition of growth at 100 µg/mL (Alternaria alternata) | inhibition of growth at 100 µg/mL (Geotrichum candidum [2]) | MIC50 (Geotrichum candidum [3])
O=C1CCC(NNc2ccccn2)N1 (racemic) | 21% | 0% | 0% | 0% | 64% | 23% | 0% | Non-Toxic | 0% | 11% | 8% | 0% | 32% | 
CC(C)=CCC/C(C)=C/C=N/NC(=O)[C@@H]1CCC(=O)N1 | 0% | 15% | 0% | 27% | 43% | 17% | 8% | Non-Toxic | 27% | 0% | 38% | 0% | 5% | 
O=C1CC[C@@H](C(=O)N/N=C/c2c(F)c(F)c(F)c(F)c2F)N1 | 21% | 5% | 0% | 11% | 40% | 4% | 0% | Non-Toxic | 17% | 0% | 0% | 0% | 36% | 
O=C1CC[C@@H](C(=O)N/N=C/C2CCCCC2)N1 | 23% | 0% | 0% | 1% | 0% | 8% | 30% | Non-Toxic | 8% | 36% | 0% | 8% | 62% | 
N#Cc1ccc(/C=N/NC(=O)[C@@H]2CCC(=O)N2)cc1 | 20% | 0% | 10% | 0% | 0% | 0% | 0% | Non-Toxic | 0% | 33% | 0% | 42% | 0% | 
O=C1CC[C@@H](C(=O)N/N=C/c2cccc(C(F)(F)F)c2Cl)N1 | 44% | 0% | 47% | 36% | 0% | 4% | 18% | Non-Toxic | 0% | 19% | 0% | 12% | 62% | 
COc1ccc(/C=N/NC(=O)[C@@H]2CCC(=O)N2)cc1 | 23% | 38% | 40% | 35% | 0% | 24% | 40% | Non-Toxic | 0% | 36% | 49% | 3% | 25% | 
COc1cc(/C=N/NC(=O)[C@@H]2CCC(=O)N2)cc(OC)c1OC | 32% | 0% | 50% | 0% | 0% | 0% | 18% | Non-Toxic | 0% | 26% | 0% | 29% | 0% | 
C=C(C)C1CC=C(/C=N/NC(=O)[C@@H]2CCC(=O)N2)CC1 (stereo not given in full) | 45% | 0% | 18% | 56% | 0% | 0% | 0% | Non-Toxic | 13% | 31% | 0% | 0% | 39% | 
COc1cc(/C=N/NC(=O)[C@@H]2CCC(=O)N2)ccc1O | 0% | 0% | 37% | 0% | 0% | 0% | 0% | Non-Toxic | 0% | 22% | 0% | 20% | 0% | 
O=C1CC[C@@H](C(=O)N/N=C/CCc2ccccc2)N1 | 29% | 0% | 0% | 53% | 0% | 0% | 12% | Non-Toxic | 6% | 39% | 17% | 0% | 68% | 
O=C1CC[C@@H](C(=O)N/N=C/c2cc(F)ccc2F)N1 | 26% | 0% | 47% | 34% | 58% | 13% | 18% | Non-Toxic | 6% | 37% | 0% | 0% | 62% | 
OC(Cn1cncn1)(Cn1cncn1)c1ccc(F)cc1F [FLUCONAZOLE] |  |  |  |  |  |  |  |  |  |  |  |  |  | 1.6 µg/mL
CC1(C)C2CC=C(/C=N/NC(=O)[C@@H]3CCC(=O)N3)C1C2 (stereo not given in full) | 0% | 0% | 0% | 0% | 0% | 4% | 18% | Non-Toxic | 0% | 39% | 0% | 0% | 0% | 
